Experimental data published in patent US11969428B2, “Methods and pharmaceutical compositions for treating lymphoid malignancy” (priority 2011, dated 2024).

What was measured:
p110β = p110β (Homo sapiens, UniProt P42338); assay: ex-vivo PI3 kinase assay using recombinant PI3K; type: biochemical; conditions: ATP at Km
Procedure: CAL-130 is a derivative of IC87114 (Gilead Sciences, Foster City, CA), the synthesis of which has been previously described (Sadhu et al., 2003 and Sadhu et al., U.S. Pat. Nos. 6,518,277 and 6,667,300, which are incorporated by reference as if recited in full herein). […] values for CAL-130 inhibition of PI3K isoforms were determined in ex-vivo PI3 kinase assays using recombinant PI3K. A 10-point kinase inhibitory profile was determined with ATP at a concentration consistent with the Km for each enzyme (Puri et al., 2004).

[1] = system: primary human T-ALL tumor cells; assay: Primary T-ALL cell viability on MS5-DL1 stroma; type: cell-based; conditions: primary T-ALL devoid of PTEN; 72 hours
Procedure: (§1) Cell proliferation of CCRF-CEM cells or shRNA transfected CCRF-CEM cells, in the presence or absence of appropriate drug, was followed by cell counting of samples in triplicate using a hemocytometer and trypan blue. For apoptosis determinations of untransfected or shRNA transfected CCRF-CEMs, cells were stained with APC-conjugated Annexin-V (BD Biosciences) in Annexin Binding Buffer (Miltyeni Biotec) and analyzed by flow cytometry. For primary T-ALL samples, cell viability was assessed using the BD Cell Viability kit (BD Biosciences) coupled with the use of fluorescent counting beads as previously described (Armstrong et al., 2009). For this, cells were plated with MS5-DL1 stroma cells, and after 72 hours following drug treatment cells were harvested and stained with an APC-conjugated anti-human CD45 followed by a staining with the above kit according to the manufacturer's instructions.

Ca2+ flux in thymocytes = assay: Calcium flux assay after TCR cross-linking; type: cell-based, mouse; conditions: wild type thymocytes; to levels of Pik3cg−/−;pik3cd−/− counterparts
Procedure: Thymocytes or lymphocytes were preloaded with Fluo-4 AM (Molecular Probes, Eugene, OR) at 5 μg/mL for 30 minutes at 37° C., labeled with anti-CD4-APC conjugate (BD Biosciences) to permit gating on this T-cell subset during analysis, and finally washed and resuspended (2×10^6/mL) in DMEM and 10% FCS. After a baseline was established at quiescence, Ca^2+ flux was induced by the addition in tandem of anti-CD3e (hamster antimouse antibody; BD Biosciences) and the anti-hamster IgG polyclonal antibody (Jackson ImmunoResearch, West Grove, PA) for cross-linking. The resultant flux in Ca^2+ was measured for 5 minutes by flow cytometry, and total flux was established by the addition of ionomycin (0.5 μg/mL). Drug inhibition of Ca^2+ flux was measured after 30 minute pre-incubation with CAL-130 at room temperature of dye loaded cells. Percentage overall change in Ca^2+ flux is reported as (Ca^2+ fluxpeak−Ca^2+ fluxbaseline/Ca^2+fluxionomycin−Ca^2+fluxbaseline)×100.

thymocytes = assay: Effect on thymi of 6 week old mice treated 7 days; type: in vivo, mouse; conditions: 10 mg kg−1 every 8 hours for 7 days
Procedure: Cell counts were measured on a Hemavet 850FS system (CDC Technologies, Oxford, CT), and standard procedures were followed for staining cells with the following antibody conjugates for flow cytometry (BD Biosciences, San Jose, CA) (Cella et al., 2004): phycoerythrin (PE) anti-CD4 (clone H129.19), fluorescein (FITC), PE, cytochrome c (CyC), or biotin anti-CD8a, FITC CD3c, CyC anti-B220, and Thy 1.2. Biotinylated antibodies were detected with either streptavidin-PE or streptavidin-CyC. Subsets of DN thymocytes were analyzed based on expression of CD25 and CD44 after gating out cells that stained with a cocktail of biotinylated antibodies to CD4, CD8, B220, Mac-1, and Gr-1 followed by streptavidin Cy-Chrome.
To assess the in vivo efficacy of the inhibitor, its effects on thymi of 6 week old mice were determined, specifically for its ability to recapitulate the phenotype observed when both p110γ and p110δ are deficient. Animals received 10 mg kg^−1 of the inhibitor orally, which was sufficient to maintain plasma concentrations of 0.33±0.18 μM at the end of 8 hours (FIG. 16D). […] In particular, there was a 18-fold reduction in total thymocyte number in comparison to controls, which was primarily due to the loss of DP population (FIG. 16H). These observations are consistent with the ability of CAL-130 to preferentially block the function of both PI3Kγ and PI3Kδ.

[2] = Plasma glucose and insulin levels; type: in vivo, mouse; conditions: single oral dose 10 mg kg−1
Procedure: Plasma glucose and insulin levels were determined following a single oral dose of CAL-130 (10 mg kg^−1). Blood was collected into K2EDTA tubes by cardiac puncture at baseline and 0, 2, 4, and 8 hours post-dose, and plasma samples frozen at −80° C. until analysis. The insulin and glucose levels were determined by using an Ultra Sensitive Mouse Insulin ELISA Kit (Crystall Chem Inc.) or WaveSense Presto Blood Glucose Monitoring System (Agamatrix Inc., Boston, MA), respectively.

CCRF-CEM cells [3] = assay: Immunoblots of signaling downstream of PI3K; type: cell-based, human
Procedure: Cell lysates (from cell lines or thymocytes) were prepared on ice in M-PER Mammalian Protein Extraction reagent (Pierce) containing a cocktail of protease and phosphatase inhibitors (Swat et al., 2006). Equal amounts of total protein from lysates were subjected to SDS-PAGE, transferred to PVDF membrane (Immobilon-P, Millipore), and membranes probed by overnight incubation with appropriate primary antibodies. Bound antibodies were visualized with HRP-conjugated secondary antibodies and ECL chemistry (SuperPico West, Pierce).
The PI3K/Akt signaling pathway can play a major role in cell cycle progression and growth of tumors by regulating the activation state of the downstream targets such as glycogen synthase kinase-3β (GSK3β) and mTOR (Schmelzle and Hall, 2000; Cohen and Frame, 2001). PI3K/Akt mediated phosphorylation suppresses the function of the former and promotes the activity of the latter. Tumor cell survival, on the other hand, is largely mediated by the ability of this pathway to inactivate proapoptotic effectors such as the BH3-only pro-apoptotic protein BAD and to repress the expression of BIM, both of which participate in the mitochondria-dependent cell death pathway (Strasser et al., 2000; Duronio, 2008). Therefore, the ability of CAL-130 treatment to interfere with such events was examined. […] Downstream targets of this protein kinase were also affected as evidenced by the reduction in phosphorylation of GSK3β and mTOR. […] The latter would also explain in part the synergy between CAL-130 and dexamethasone, as BIM expression is required for glucocorticoid-induced apoptosis (Erlacher et al., 2005; Wang et al., 2003).

CCRF-CEM cells [4] = assay: Cell proliferation and apoptosis (cell counting, Annexin V); type: cell-based, human; conditions: CCRF-CEM
Procedure: as §1

[5] = within 24 hours, persisted over 4 days

Chain of p110β (P42338 whole entry, species assumed, canonical isoform): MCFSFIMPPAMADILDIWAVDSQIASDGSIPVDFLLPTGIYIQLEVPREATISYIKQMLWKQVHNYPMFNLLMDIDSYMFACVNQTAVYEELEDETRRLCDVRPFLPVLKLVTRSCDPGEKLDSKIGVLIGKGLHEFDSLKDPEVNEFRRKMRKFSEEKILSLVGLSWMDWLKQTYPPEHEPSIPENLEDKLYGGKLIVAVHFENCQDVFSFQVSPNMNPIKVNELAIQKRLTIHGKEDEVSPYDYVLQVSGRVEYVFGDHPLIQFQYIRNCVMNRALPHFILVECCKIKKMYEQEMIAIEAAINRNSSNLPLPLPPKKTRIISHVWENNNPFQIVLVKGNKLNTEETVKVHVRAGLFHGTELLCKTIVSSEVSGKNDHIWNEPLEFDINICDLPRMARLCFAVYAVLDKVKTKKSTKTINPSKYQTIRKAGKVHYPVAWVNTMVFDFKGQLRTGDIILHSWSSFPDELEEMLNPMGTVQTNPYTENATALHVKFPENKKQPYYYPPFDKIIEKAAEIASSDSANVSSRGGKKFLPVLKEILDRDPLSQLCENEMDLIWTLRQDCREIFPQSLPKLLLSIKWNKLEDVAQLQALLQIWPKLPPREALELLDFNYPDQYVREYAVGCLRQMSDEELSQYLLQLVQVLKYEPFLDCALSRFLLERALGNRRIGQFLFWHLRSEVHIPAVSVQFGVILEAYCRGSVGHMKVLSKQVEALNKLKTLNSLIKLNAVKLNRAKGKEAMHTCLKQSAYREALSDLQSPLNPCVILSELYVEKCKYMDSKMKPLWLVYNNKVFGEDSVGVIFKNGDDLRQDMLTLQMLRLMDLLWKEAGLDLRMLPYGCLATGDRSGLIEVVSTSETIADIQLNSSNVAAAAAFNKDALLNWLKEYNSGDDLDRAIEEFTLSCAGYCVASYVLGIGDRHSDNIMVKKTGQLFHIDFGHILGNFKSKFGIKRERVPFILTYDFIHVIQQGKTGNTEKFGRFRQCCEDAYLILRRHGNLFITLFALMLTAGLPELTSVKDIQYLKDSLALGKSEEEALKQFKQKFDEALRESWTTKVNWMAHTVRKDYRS
Chain of p110β (P27986 whole entry partner, species assumed, canonical isoform): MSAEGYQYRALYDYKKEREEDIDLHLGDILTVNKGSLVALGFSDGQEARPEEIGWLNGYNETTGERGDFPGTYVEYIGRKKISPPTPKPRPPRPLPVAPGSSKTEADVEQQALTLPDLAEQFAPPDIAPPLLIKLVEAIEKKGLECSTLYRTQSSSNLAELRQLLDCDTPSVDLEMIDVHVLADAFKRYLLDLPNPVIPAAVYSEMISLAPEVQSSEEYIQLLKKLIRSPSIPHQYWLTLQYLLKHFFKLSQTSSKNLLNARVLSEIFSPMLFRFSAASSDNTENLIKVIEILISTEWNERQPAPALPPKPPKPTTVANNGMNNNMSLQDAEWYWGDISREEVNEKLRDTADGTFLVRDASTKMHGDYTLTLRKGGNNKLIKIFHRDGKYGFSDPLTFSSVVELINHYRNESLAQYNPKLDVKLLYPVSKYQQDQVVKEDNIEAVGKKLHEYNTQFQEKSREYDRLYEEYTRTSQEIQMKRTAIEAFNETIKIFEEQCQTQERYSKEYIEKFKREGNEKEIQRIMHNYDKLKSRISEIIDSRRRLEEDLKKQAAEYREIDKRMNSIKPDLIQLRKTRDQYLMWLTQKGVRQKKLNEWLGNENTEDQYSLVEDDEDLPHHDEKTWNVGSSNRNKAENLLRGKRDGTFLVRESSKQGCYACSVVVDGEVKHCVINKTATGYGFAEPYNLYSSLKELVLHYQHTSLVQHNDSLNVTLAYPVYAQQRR

Cc1ccccc1-n1c(C(C)Nc2nc(N)nc3nc[nH]c23)nc2cccc(C)c2c1=O (centres unmarked) [CAL-130]
IC50 (p110β): 56 nM | tumor cell viability [1]: reduction in tumor cell viability | calcium flux in response to TCR cross-linking (Ca2+ flux in thymocytes): attenuated | reduction in total thymocyte number in comparison to controls (thymocytes): 18 fold | plasma glucose levels [2]: did not affect | plasma insulin levels [2]: did not affect | expression of BIM (including L and S isoforms) (CCRF-CEM cells [3]): enhanced expression | phosphorylation of BAD (CCRF-CEM cells [3]): reduction | phosphorylation of GSK3β (CCRF-CEM cells [3]): reduction | phosphorylation of mTOR (CCRF-CEM cells [3]): reduction | Akt (Ser473) phosphorylation (CCRF-CEM cells [3]; 2.5 μM, 6 hours): complete abrogation | apoptotic properties of dexamethasone (CCRF-CEM cells [4]; dexamethasone in combination with 2.5 μM CAL-130): significantly enhanced | apoptosis (CCRF-CEM cells [4]; [5]): promoted apoptosis | proliferation (CCRF-CEM cells [4]; [5]): prevented proliferation
